Our source for the GI50 and TGI values is PubChem BioAssay (NCI).

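Five compound concentrations were applied to cells in 96-well plates for 48 hours; endpoints were derived by simple linear interpolation of the resulting dose-response curve. Abbreviation: GI50, concentration required for 50% inhibition of growth. TGI denotes the concentration required for complete inhibition of growth.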

Test systems include MALME-3M melanoma; NCI/ADR-RES ovarian; PC-3 prostate; SK-MEL-2 melanoma; SK-MEL-28 melanoma; SNB-75 CNS; U251 CNS; UACC-62 melanoma; CCRF-CEM leukemia.
Assay in all cases: DTP human tumour cell line panel, 48 h

Turning to `O=C(NCCNCCO)c1ccc2c(c1)oc1cc3ccccc3c(=O)n12`, the GI50 in the test with MALME-3M melanoma was 19.7 µM; in the test on NCI/ADR-RES ovarian it was above 50 µM; in the test on PC-3 prostate, 35.5 µM; in the test with SK-MEL-2 melanoma it was 12.8 µM; in the test with SK-MEL-28 melanoma, above 50 µM; in the test with SNB-75 CNS, 15 µM. In addition, the GI50 is 14.7 µM in the test with U251 CNS and above 50 µM in the test on UACC-62 melanoma. Besides, the TGI with MALME-3M melanoma is above 50 µM; in the test with NCI/ADR-RES ovarian, above 50 µM; with PC-3 prostate, above 50 µM; with SK-MEL-2 melanoma, 44.7 µM; in the test on SK-MEL-28 melanoma, above 50 µM; in the test with SNB-75 CNS, 44.4 µM. Further, the total growth inhibition concentration (TGI) with U251 CNS is 42.6 µM; in the test with UACC-62 melanoma, above 50 µM.

In the case of `Cc1ccc(S(=O)(=O)OCC/C(=C\[Si](C)(C)C)c2ccccc2)cc1`, the TGI in the test with CCRF-CEM leukemia, in the test with MALME-3M melanoma, in the test on SK-MEL-2 melanoma, in the test with SK-MEL-28 melanoma, with SNB-75 CNS and in the test on U251 CNS was above 100 µM each time. This molecule also gave a concentration for total growth inhibition (TGI) with UACC-62 melanoma above 100 µM.

Turning to `COc1cc([C@@H]2c3cc4c(cc3[C@@H](NC(=O)c3ccc(C#N)cc3)C3COC(=O)[C@@H]32)OCO4)cc(OC)c1O` (stereo partly specified), the TGI in the test on CCRF-CEM leukemia is above 100 µM; in the test with MALME-3M melanoma, 2.59 µM; in the test with SK-MEL-2 melanoma, 5.56 µM; with SK-MEL-28 melanoma it was 16.8 µM; in the test on SNB-75 CNS it was 5.49 µM; in the test with U251 CNS it was 1.26 µM. The same molecule showed a TGI in the test with UACC-62 melanoma of 2.19 µM.

Take `OCc1cc2c(cn1)[nH]c1ccc(NCc3ccccc3)cc12`: the TGI was 64.7 µM with CCRF-CEM leukemia; above 100 µM in the test with MALME-3M melanoma; above 100 µM in the test with SK-MEL-2 melanoma; 38.4 µM in the test with SK-MEL-28 melanoma; 69.7 µM in the test with SNB-75 CNS; above 100 µM in the test with U251 CNS. The TGI with UACC-62 melanoma is 42.7 µM.

Consider `COC(=O)C1C(C(=O)OC)C2C(=O)C3C(C(=O)OC)C(C(=O)OC)C3C(=O)C12` (stereo unspecified), for which the TGI in the test on CCRF-CEM leukemia, with MALME-3M melanoma, in the test on SK-MEL-2 melanoma, in the test with SK-MEL-28 melanoma and in the test with U251 CNS was above 100 µM each time.

Consider `O=C1NC(=O)c2c1n(Cc1ccccc1)c(=O)n2Cc1ccccc1`, for which the concentration for total growth inhibition (TGI) with CCRF-CEM leukemia, in the test on MALME-3M melanoma, with SK-MEL-2 melanoma, in the test with SK-MEL-28 melanoma, in the test on SNB-75 CNS and in the test with U251 CNS was above 100 µM each time. For the same molecule, the TGI in the test with UACC-62 melanoma is above 100 µM.

As for `O=[N+]([O-])c1ccccc1C1SCc2nc3ccccc3n21` (stereo unspecified), the TGI with CCRF-CEM leukemia, with MALME-3M melanoma, in the test on SK-MEL-2 melanoma, with SK-MEL-28 melanoma, with U251 CNS and with UACC-62 melanoma was above 100 µM throughout.

In the case of `COC(=O)C1C(=O)O[C@@H](c2ccc3c(c2)OCO3)C1C(=O)OC` (mixture of isomers), the TGI in the test with CCRF-CEM leukemia, with MALME-3M melanoma, with SK-MEL-28 melanoma, in the test with SNB-75 CNS, in the test on U251 CNS and in the test with UACC-62 melanoma was above 100 µM in each case.

On to `COc1nc2c(c(O)c(C)c(=O)n2OC2OCC(OC(C)=O)C(OC(C)=O)C2OC(C)=O)c(=O)n1C` (stereo unspecified), for which the TGI in the test with CCRF-CEM leukemia, in the test with SK-MEL-2 melanoma, in the test on SK-MEL-28 melanoma, in the test on SNB-75 CNS, in the test with U251 CNS and in the test with UACC-62 melanoma was above 100 µM throughout.

Regarding `NNC(=O)C(=O)N/N=C1/CCCC1C(=O)CCC(=O)Nc1ccc(Cl)cc1` (stereo unspecified), the TGI in the test with CCRF-CEM leukemia, in the test on MALME-3M melanoma, with SK-MEL-2 melanoma, in the test with SK-MEL-28 melanoma, with SNB-75 CNS and in the test with U251 CNS was above 100 µM each time. Moreover, the total growth inhibition concentration (TGI) in the test with UACC-62 melanoma was determined as 24 µM.

Consider `O=c1cc(O)cc2n1CCC2`, for which the TGI in the test with CCRF-CEM leukemia, with MALME-3M melanoma, in the test with SK-MEL-2 melanoma, in the test with SNB-75 CNS, in the test with U251 CNS and in the test with UACC-62 melanoma was above 100 µM each time.

For the molecule `O=C(NC12CC3CCC1CC(C3)C2)[C@@H]1CCCN1C(=O)OCc1ccccc1` (stereo partly specified), the TGI in the test with CCRF-CEM leukemia was above 100 µM; in the test on MALME-3M melanoma, above 100 µM; in the test on SK-MEL-2 melanoma, above 100 µM; with SK-MEL-28 melanoma, above 100 µM; in the test with SNB-75 CNS it was 97.2 µM; in the test on U251 CNS, above 100 µM. For the same molecule, the TGI with UACC-62 melanoma was above 100 µM.

In the case of `CC1=N/C(=C\c2ccc(/C=C3/N=C(C)OC3=O)cc2)C(=O)O1`, the TGI in the test with CCRF-CEM leukemia, with MALME-3M melanoma, with SK-MEL-2 melanoma, in the test on SK-MEL-28 melanoma, in the test on SNB-75 CNS and in the test on U251 CNS was above 100 µM throughout. Also, the TGI in the test with UACC-62 melanoma is above 100 µM.

Take `O=C(NC1C(=O)NNC1c1cccc([N+](=O)[O-])c1)c1ccccc1` (stereo unspecified): the total growth inhibition concentration (TGI) in the test on CCRF-CEM leukemia, with MALME-3M melanoma, in the test on SK-MEL-2 melanoma, with SK-MEL-28 melanoma, with SNB-75 CNS and in the test on U251 CNS was above 100 µM throughout. Moreover, the TGI with UACC-62 melanoma was above 100 µM.

With `COC(=O)CCC(NC(=S)N/N=C/c1cccs1)C(=O)OC` (stereo unspecified), the TGI with MALME-3M melanoma, in the test with SK-MEL-2 melanoma, in the test with SK-MEL-28 melanoma, with SNB-75 CNS, in the test on U251 CNS and in the test on UACC-62 melanoma was above 100 µM in each case.

Regarding `COc1cc(Nc2cnc3ccc(C(F)(F)F)cc3n2)cc(OC)c1OC`, the TGI in the test with CCRF-CEM leukemia, with MALME-3M melanoma, in the test on SK-MEL-2 melanoma, with SK-MEL-28 melanoma and in the test on U251 CNS was above 100 µM each time.

As to `O=c1/c(=C/c2ccccc2[N+](=O)[O-])sc2nnc(-c3cccnc3)n12`, the TGI with CCRF-CEM leukemia, in the test on MALME-3M melanoma, in the test with SK-MEL-2 melanoma, in the test on SK-MEL-28 melanoma, with SNB-75 CNS and in the test with UACC-62 melanoma was above 100 µM in each case.

`CCOC(=O)c1nc(C)oc1C(F)(F)F`: the TGI with CCRF-CEM leukemia, in the test on MALME-3M melanoma, in the test with SK-MEL-2 melanoma, in the test with SK-MEL-28 melanoma, in the test on SNB-75 CNS and in the test with U251 CNS was above 100 µM in each case. In addition, the total growth inhibition concentration (TGI) with UACC-62 melanoma was above 100 µM.

For `CCc1ccccc1NC(=O)c1cccc([N+](=O)[O-])c1O`, the TGI in the test with CCRF-CEM leukemia is above 100 µM; in the test on MALME-3M melanoma, above 100 µM; in the test on SK-MEL-28 melanoma, above 100 µM; in the test with SNB-75 CNS, 71.8 µM; in the test on U251 CNS, above 100 µM; in the test with UACC-62 melanoma, above 100 µM.
